Earlier results, collected in patent US10493116B2, “Longevity gene expression enhancer” (Shiseido Company, Ltd., priority 2014, dated 2019).

What was measured:
sirtuin-1 [1] = target: T1, sirtuin-1 (Homo sapiens, UniProt Q96EB6)
T1 sequence (Q96EB6 1-747): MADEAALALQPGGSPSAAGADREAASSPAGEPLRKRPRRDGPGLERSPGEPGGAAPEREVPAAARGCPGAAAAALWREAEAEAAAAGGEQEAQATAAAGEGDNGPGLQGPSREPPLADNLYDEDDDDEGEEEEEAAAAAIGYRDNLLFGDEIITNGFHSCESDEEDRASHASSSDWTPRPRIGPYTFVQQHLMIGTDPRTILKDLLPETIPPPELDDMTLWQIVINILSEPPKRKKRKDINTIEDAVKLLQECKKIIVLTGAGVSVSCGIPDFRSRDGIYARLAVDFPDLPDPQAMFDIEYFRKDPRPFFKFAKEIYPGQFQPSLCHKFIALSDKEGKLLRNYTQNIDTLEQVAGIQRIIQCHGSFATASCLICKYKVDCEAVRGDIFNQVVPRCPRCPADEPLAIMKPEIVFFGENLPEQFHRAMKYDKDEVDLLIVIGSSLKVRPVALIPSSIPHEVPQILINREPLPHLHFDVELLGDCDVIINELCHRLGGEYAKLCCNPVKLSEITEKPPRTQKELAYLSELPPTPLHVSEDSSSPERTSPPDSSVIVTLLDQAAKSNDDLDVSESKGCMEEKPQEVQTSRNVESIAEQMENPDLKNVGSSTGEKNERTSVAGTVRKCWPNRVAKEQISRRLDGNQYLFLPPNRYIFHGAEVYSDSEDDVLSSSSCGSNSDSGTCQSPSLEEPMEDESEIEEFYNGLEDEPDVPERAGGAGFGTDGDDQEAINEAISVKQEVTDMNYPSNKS

sirtuin-1 [2] = conditions: quercetin produced from rutin in the body; J. Pharmacol. Sci., 2008, 108, 364-71

Structure (SMILES): O=C(/C=C/c1ccc(O)c(O)c1)O[C@@H]1C[C@](O)(C(=O)O)C[C@@H](O)[C@H]1O [chlorogenic acid]
- sirtuin-1 activating effect (sirtuin-1 [1]; PLoS One, 2014, 9(2), e89166): no sirtuin-1 activating effect

Structure (SMILES): COc1ccc([C@@H]2CC(=O)c3c(O)cc(O[C@@H]4O[C@H](CO[C@@H]5O[C@@H](C)[C@H](O)[C@@H](O)[C@H]5O)[C@@H](O)[C@H](O)[C@H]4O)cc3O2)cc1O [hesperidin]
- effect of activating sirtuin-1 (sirtuin-1 [1]; at 5 μM, Biosci. Biotechnol. Biochem., 2012, 76(4), 640-645): effect of activating sirtuin-1

Structure (SMILES): O=c1c(O)c(-c2ccc(O)c(O)c2)oc2cc(O)cc(O)c12 [quercetin]
- sirtuin-1 expression inhibiting effect (sirtuin-1 [2]): sirtuin-1 expression inhibiting effect
